Columns and labels:
[1] = Phase 2 study in obesity or overweight with at least one weight related comorbidity, 36 weeks (Example 4A); format: in vivo, human
Excerpt: The primary endpoint was the percentage change in body weight from baseline to week 26, with a secondary 36-week endpoint.
A 36-week Phase 2, multicenter, randomized, double-blind, parallel, placebo-controlled study was designed to examine the efficacy and safety of 4 dose levels of once daily administered Compound 1a, compared with once daily administered placebo in participants with obesity or overweight with at least one weight related comorbidity. A total of 272 patients were randomized 5:5:5:3:3:3:3 to once daily placebo or Compound 1a maintenance doses of 12 mg, 24 mg, 36 mg (36-1, 36-2) or 45 mg (45-1, 45-2) treatment groups. The 36 and 45 mg cohorts were subdivided in a 36 mg-1 and 36 mg-2 as well as 45 mg-1 and 45 mg-2 respectively, as different starting doses, dose escalations and dose escalation steps were investigated in these subgroup cohorts (FIG. 2). The different dose escalations were performed to assess the maintenance dose and titration steps for future trials.
Eligible male or female participants were >18 years of age with a HbA1c<6.5% (48 mmol/mol) and a BMI of ≥30 kg/m2 or ≥27 kg/m2 and <30 kg/m2 with at least 1 of the following weight-related comorbidities: hypertension, dyslipidemia, cardiovascular disease, or obstructive sleep apnea.
The study period included a 2-week screening/lead in period, a 36-week treatment period followed by a 2 week off-drug safety follow-up period. During the treatment period, doses were escalated for all treatment groups. The dose escalation period ranged from 0 to 16 weeks depending on dose group. The initial dose was 2 or 3 mg followed by additional escalation steps depending on assigned cohort (FIG. 2). Compound 1a or matching placebo was administered daily by oral capsule. All participants were provided healthy eating and exercise education by study personnel throughout the trial.
The primary endpoint was percent change in body weight from baseline at week 26. Secondary endpoints included percent change in body weight from baseline at week 36, change from baseline in body weight (kg), BMI (kg/m2) and waist circumference (cm), and percentage of study participants who achieved ≥5% body weight (kg) reduction, and ≥10% body weight (kg) reduction, at week 26 and week 36. Key safety endpoints included adverse events, blood pressure, heart rate, safety laboratory measures, PK parameters, and patient-reported outcomes.
A sample size of 270 participants was calculated to provide at least 90% power for testing superiority of Compound 1 versus placebo in the primary endpoint. The estimand used for efficacy analyses was an “efficacy estimand”, representing the average treatment effect for the randomized population if the treatment was administered as intended, thus including data from all randomized participants who received at least one dose of study drug and excluding data after permanent discontinuation of study drug. All tests of treatment effects were conducted at a 2-sided alpha level of 0.05 without adjustment for multiple comparisons, and 2-sided 95% CIs were calculated. To test efficacy of Compound 1a with adequate statistical power, for 36 mg and 45 mg the evaluation of the primary endpoint was made by pooling 2 dose escalation regimens (combining 36 mg-1 and 36 mg-2, for 36 mg, and combining 45 mg-1 and 45 mg-2, for 45 mg).
(§1) Safety analyses were conducted by comparing safety of Compound 1a with placebo irrespective of adherence to study drug. The safety analyses were conducted using the safety analysis set, which includes all randomized participants who received at least one dose of study drug. The results were presented in summary statistics, point estimates, and 95% confidence intervals along with p-values for treatment comparisons.

[2] = Phase 1 studies of clinical pharmacology, PK and PD in healthy volunteers and in participants with T2D; format: in vivo, human
Excerpt: The clinical pharmacology, PK, and PD of Compound 1a were studied in 2 completed Phase 1 studies in healthy volunteers and in participants with T2D).

[3] = format: in vivo, human; conditions: 26 weeks, 3 mg to 45 mg QD
Experimental: Two Phase 2 studies have evaluated the safety and efficacy of Compound 1a for the treatment of T2D and another for treatment of obesity or overweight with at least one weight related comorbidity.
The 36 and 45 mg cohorts were subdivided in a 36 mg-1 and 36 mg-2 as well as 45 mg-1 and 45 mg-2 respectively, as different starting doses, dose escalations and dose escalation steps were investigated in these subgroup cohorts (FIG. 4).
Eligible male or female participants were >18 years of age with T2D with a HbA1c 7.0% to 10.5% and a body mass index (BMI) of ≥23 kg/m2, treated with diet and exercise alone or with a stable dose of metformin and with a stable body weight (≤5% body weight gain and/or loss) for at least 3 months prior to screening/Visit 1.
The study period included a 2-week screening/lead in period and a 26-week treatment period. During the treatment period, doses were escalated for all treatment groups. The dose escalation period ranged from 4 to 12 weeks depending on dose group. The initial dose was 2 or 3 mg followed by additional escalation steps depending on assigned cohort (FIG. 4). […] All participants were provided healthy eating and exercise education by study personnel throughout the trial.
Key Safety and tolerability endpoints included the frequency of patient- and investigator-reported adverse events, rate and incidence of hypoglycaemia events (glucose <70 mg/dL [3.9 mmol/L] and ≥54 mg/dL [3.0 mmol/L], or glucose <54 mg/dL [3.0 mmol/L]), and change in safety laboratory parameters, electrocardiogram, and vital signs.
The estimand used for efficacy analyses was an “efficacy estimand”, representing the average treatment effect for the randomized population if the treatment was administered as intended, thus including data from all randomized participants who received at least one dose of study drug and excluding data after permanent discontinuation of study drug. All tests of treatment effects were conducted at a 2-sided alpha level of 0.05 without adjustment for multiple comparisons, and 2-sided 95% CIs were calculated.
as §1, with “OFG” for “Compound 1a”, “placebo and with dulaglutide” for “placebo”

[4] = after 12 weeks of treatment, 9 mg QD to 45 mg QD, people with T2D

- Liver function tests compared with placebo ([1]; in vivo): not significantly increased
- PK profile ([2]; Phase 1 studies): appropriate for once daily oral dosing
SMILES: Cc1cc(-n2nc3c(c2-n2ccn(-c4ccc5c(cnn5C)c4F)c2=O)[C@H](C)N(C(=O)c2cc4cc([C@H]5CCOC(C)(C)C5)ccc4n2[C@@]2(c4noc(=O)[nH]4)C[C@@H]2C)CC3)cc(C)c1F [Compound 1a, 3-[(1S,2S)-1-[5-[(4S)-2,2-dimethyloxan-4-yl]-2-[(4S)-2-(4-fluoro-3,5-dimethylphenyl)-3-[3-(4-fluoro-1-methylindazol-5-yl)-2-oxoimidazol-1-yl]-4-methyl-6,7-dihydro-4H-pyrazolo[4,3-c]pyridine-5-carbonyl]indol-1-yl]-2-methylcyclopropyl]-4H-1,2,4-oxadiazol-5-one]
- percentage of patients who had weight reduction of 15% or more ([1]; 36 weeks, 45 mg): 48%
- percentage of patients who had weight reduction of 10% or more ([1]; 36 weeks, across dose groups): 47% to 75
- percentage of patients who reported AEs ([1]; across dose groups): 86% to 90.2
- mean reduction in systolic blood pressure (SBP) ([1]; baseline to week 26, across dose groups): −4.8 to −10.5 mmHg
- mean reduction in systolic blood pressure (SBP) ([1]; baseline to week 36, across dose groups): −6.7 to −10.5 mmHg
- tolerability by escalation interval ([1]; dose escalated every 3 weeks compared to every 1-2 weeks): superior tolerability
- Most common TEAEs ([1]; in vivo): GI related (nausea, vomiting, diarrhea and constipation)
- diastolic blood pressure (DBP) compared to placebo ([1]; in vivo): No differences were noted
- health-related quality of life and physical activity readouts versus placebo ([1]; in vivo): greater improvements
- most common adverse events ([1]; in vivo): gastrointestinal, mild to moderate in severity
- most common events reported ([1]; in vivo): Nausea, constipation, vomiting, diarrhea, and eructation
- prespecified weight and cardiometabolic measures ([1]; in vivo): improvements in all prespecified weight and cardiometabolic measures
- mean percent weight loss compared to placebo ([1]; primary 26-week endpoint): 11%
- mean percent weight loss from baseline ([1]; primary 26-week endpoint): up to 13%
- GI AE events by starting dose ([1]; starting dose of 3 mg versus 2 mg starting dose): higher GI AE events
- mean percentage change in body weight from baseline ([1]; week 26, across dose groups 12-45 mg): −8.6% to −12.6
- HDL cholesterol versus placebo ([1]; week 36): no significant change
- changes in the fasting lipids (triglycerides, total cholesterol, non-HDL cholesterol, LDL and VLDL) ([1]; week 36): Benefits with Compound 1a were noted
- mean percentage change in body weight from baseline ([1]; week 36, across dose groups 12-45 mg): −9.4% to −14.7
- PK of Compound 1a plasma concentration increase with dose ([2]; 9 mg QD to 45 mg QD dose range): approximately proportional to the increase of dose
- most reported AEs ([2]; Phase 1 studies): nausea, vomiting, and constipation
- improvements in HbA1c [2, 4]: up to −1.4%
- weight loss [2, 4]: up to −5.8 kg
- HbA1c treatment difference vs placebo [3]: −1.7%
- mean changes from baseline in HbA1c [3]: up to −2.1%
- mean weight loss [3]: up to 10 kg
- weight loss treatment difference vs placebo [3]: 8 kg
